According to patent US6469138B1, “Thrombospondin receptor binding peptides” (Washington University, priority 1993, dated 2002):
Entries after “also recorded” stand apart in the source; their conditions may differ. Where a SMILES comes first, the peptide text is derived from it. Where no end group is shown, it is not given here.

Assays:
[1] = Solubility of peptides; assay type: physicochemical; conditions: for solubility: insoluble at higher concentrations, read-out: solubility limit
[2] = system: G361 cells; experiment: Direct attachment of G361 cells to peptides adsorbed on microtiter wells (cell adhesion assay); assay type: cell-based, human; conditions: peptide adsorbed to plastic wells; cells 1 hr at 37° C.; in words
Experimental: Equimolar concentrations of peptides shown in FIG. 1A were evaluated as attachment factors for G361 cells. Peptides C4 (¤), 4N (●), 4N1 (▴), 4N1-1 (♦), 4N2 (▪) and 4C ([formula]) were adsorbed to microtiter plates at the indicated concentrations. Cells were added to the wells and incubated for 1 hour at 37° C. The attached cells were quantitated as described under “Materials and Methods” hereinbelow, and the actual absorbance due to endogenous cellular phosphatase hydrolysis of p-Nitrophenyl phosphate at 410 nm is plotted.
Microtiter wells were adsorbed with peptides C7 (▪), 7N (●), 7N3 (▴), 7N3-1 (♦), 7N2 (▪), 7N2-2 (∘), 7N3-2 (▴) and 7C, 7N1 or 7N2-1 ([formula]) at various concentrations and the attachment of G361 cells was determined. The numbers of cells attached to these peptides were correlated with the cellular phosphatase activity which is expressed as absorbance at 410 nm.
(§1) Cell Adhesion Assay—Cell adhesion was performed in 96-well plates by conventional procedures as previously described (Prater et al., 1991; Kosfeld and Frazier, 1992). […] The efficiency of coupling of all peptides was greater than 90% as judged by UV absorbance. […]
After blocking, cells were allowed to attach for 1 hr at 37° C. to substrate-coated wells or beads. In some tests, inhibition was determined by adding peptide inhibitors of cell attachment to each well along with the cells. […]

[3] = system: G361 cells; experiment: Inhibition by soluble peptides of G361 cell attachment to immobilized rCBD of TS1; assay type: cell-based, human; conditions: for inhibition of G361 cell attachment to rCBD (in words): soluble peptide inhibitor, immobilized rCBD
Experimental: FIGS. 3A and 3B show the effect of the active subpeptides of C4 and C7 on G361 cell attachment to the rCBD of TS1. To microtiter wells containing immobilized rCBD (10 μg/ml), G361 cells were added with (FIG. 3A) 4N1-1 (●), 7N3-1 (▪), 4N1-1 plus 7N3-1 (▴) and with (FIG. 3B) 4N1 (▪), 7N3 (●) and 4N1 plus 7N3 (▴). The cells were incubated for 1.5 hr in the wells and cell attachment was determined. The effects of these subpeptides on cell attachment are expressed as percent relative to the maximum cell attachment for each test where 100% is the number of cells binding to rCBD-coated well in the absence of peptide inhibitors.
(§2) After blocking, cells were allowed to attach for 1 hr at 37° C. to substrate-coated wells or beads. In some tests, inhibition was determined by adding peptide inhibitors of cell attachment to each well along with the cells. After removal of non-adhering cells, cells attached to immobilized substrates were quantitated with endogenous cellular phosphatase activity which is measured by absorption at 410 nm as previously described (Prater et al., 1991). Each assay was carried out in duplicate and each peptide was tested in 3 separate tests at 3 or more different concentrations.
To be sure that the active peptides from C4 and C7 contain the sequences that are relevant for attachment of cells to the CBD, the shorter, more soluble active peptides were tested as soluble inhibitors of the binding of G361 cells to rCBD immobilized on plastic wells. […] In contrast, 4N1-1 and 4N1, the active subpeptides for C4, are insoluble at concentrations higher than 0.2 mM and thus must be tested as soluble inhibitors at concentrations below this solubility limit. It should be noted that inclusion of peptides in the cell attachment assay at these concentrations had no adverse effects on the cells. The results of this complementary bioassay confirmed those of the direct cell adhesion assays (FIGS. 1 and 2). […] The inhibition was dose-dependent at peptide concentrations <0.1 mM for 4N1 and 7N3 and <0.2 mM for 4N1-1 and 7N3-1. […] Each peptide is present at ½ the indicated concentration. In the case of 4N1 plus 7N3, the inhibition was nearly complete (87%). […] To evaluate the contribution of adjacent sequences to activity, peptide 7N2-2 which contained the N-terminal sequence of 7N3-1, and 7N3-1 were examined in inhibition studies.

[4] = system: K562 human erythroleukemia cells; experiment: Attachment of K562 cells to immobilized TS1, LM or rCBD; assay type: cell-based; conditions: protein-coated wells
Experimental: (§3) FIGS. 6A, 6B, 6C and 6D show the attachment of four cell types to immobilized TS-1 and LM. Wells were coated with the indicated concentrations of TS1 (▪) or LM (●). Assays were performed as described under “Methods” hereinafter with (FIG. 6A)—G361 human melanomas; (FIG. 6B)—K562 erythroleukemia cells; (FIG. 6C)—HT1080 fibrosarcomas; and (FIG. 6D)—C32 amelanotic melanomas added to the wells.
as §1, with “1992). Synthetic peptides were solubilized with 6 N guanidine HCl (GnHCl) because some hydrophobic peptides were insoluble at concentrations approaching 1 mM in TBS.” for “1992).”
as §2, with “Each assay was carried out in duplicate and each peptide was tested in 3 separate tests at 3 or more different concentrations.” left out

[5] = system: C32 human melanoma; experiment: Attachment of C32 cells to immobilized TS1 or LM; assay type: cell-based; conditions: protein-coated wells
Experimental: as §3
as §1, with “1992). Synthetic peptides were solubilized with 6 N guanidine HCl (GnHCl) because some hydrophobic peptides were insoluble at concentrations approaching 1 mM in TBS.” for “1992).”
as §2, with “Each assay was carried out in duplicate and each peptide was tested in 3 separate tests at 3 or more different concentrations.” left out

[6] = system: HT1080 human fibrosarcomas; experiment: Attachment of HT1080 cells to immobilized TS1 or LM; assay type: cell-based; conditions: protein-coated wells
Experimental: as §3
as §1, with “1992). Synthetic peptides were solubilized with 6 N guanidine HCl (GnHCl) because some hydrophobic peptides were insoluble at concentrations approaching 1 mM in TBS.” for “1992).”
as §2, with “Each assay was carried out in duplicate and each peptide was tested in 3 separate tests at 3 or more different concentrations.” left out

[7] = system: G361 human melanomas; experiment: Attachment of G361 cells to immobilized TS1 or LM; assay type: cell-based; conditions: protein-coated wells
Experimental: as §3
as §1, with “1992). Synthetic peptides were solubilized with 6 N guanidine HCl (GnHCl) because some hydrophobic peptides were insoluble at concentrations approaching 1 mM in TBS.” for “1992).”
as §2, with “Each assay was carried out in duplicate and each peptide was tested in 3 separate tests at 3 or more different concentrations.” left out

[8] = target: thrombospondin 1 (TS1) receptor
[9] = target: LM receptor
[10] = target: thrombospondin 1 (TS1) receptor; remark: listed apart in the source
[11] = target: thrombospondin 1 (TS1) receptor; remark: listed apart in the source

For `CSCC[C@H](NC(=O)[C@@H](NC(=O)[C@@H](NC(=O)[C@H](Cc1ccc(O)cc1)NC(=O)[C@H](Cc1ccccc1)NC(=O)[C@@H](N)CCCNC(=N)N)C(C)C)C(C)C)C(=O)N[C@@H](Cc1c[nH]c2ccccc12)C(=O)N[C@@H](CCCCN)C(=O)N[C@@H](CCC(N)=O)C(=O)N[C@H](C(=O)N[C@H](C(=O)N[C@@H](CCC(N)=O)C(=O)N[C@@H](CO)C(=O)O)[C@@H](C)O)C(C)C` [4N1, Arg-Phe-Tyr-Val-Val-Met-Trp-Lys-Gln-Val-Thr-Gln-Ser] (H-RFYVVMWKQVTQS-OH; N-terminus and C-terminus assumed), the solubility [1] was ≤ 200 µM.

With `CSCC[C@H](NC(=O)[C@@H](NC(=O)[C@@H](NC(=O)[C@H](Cc1ccc(O)cc1)NC(=O)[C@H](Cc1ccccc1)NC(=O)[C@@H](N)CCCNC(=N)N)C(C)C)C(C)C)C(=O)N[C@@H](Cc1c[nH]c2ccccc12)C(=O)N[C@@H](CCCCN)C(=O)O` [4N1-1, Arg-Phe-Tyr-Val-Val-Met-Trp-Lys] the solubility [1] was ≤ 200 µM.

For `CC[C@H](C)[C@H](N)C(=O)N[C@@H](CCCNC(=N)N)C(=O)N[C@H](C(=O)N[C@H](C(=O)N[C@@H](CCSC)C(=O)O)C(C)C)C(C)C` [7N3-1, Ile-Arg-Val-Val-Met] (H-IRVVM-OH; N-terminus and C-terminus assumed), the “solubility (in words)” value [1] was “highly soluble”.

With FIRVVMYEGKK [7N3] the “cell attachment activity (direct attachment of G361 cells to immobilized peptide)” value [2] was “significant activity” and the “inhibition of G361 cell attachment to rCBD-coated surfaces” value ([3]; rCBD 10 μg/ml immobilized, soluble peptide, combinations: each peptide at ½ the indicated concentration) was ~50%.

For Gly-Arg-Val-Val-Met (GRVVM), the “inhibition of G361 cell attachment to rCBD (in words)” value (“inhibition … (in words)” for short) [3] was “inactive”.

With Ile-Arg-Val-Val-Gly (IRVVG) the “inhibition … (in words)” value [3] was “inactive”.

In the case of Ile-Glu-Val-Val-Met (IEVVM), the “inhibition … (in words)” value [3] is reported as “inactive”.

For RFYVVM [4N1-2], the “cell attachment activity (direct attachment of G361 cells to immobilized peptide)” value [2] was “little or no activity” and the “inhibition … (in words)” value [3] was “as potent as the longer 4N1-1; also recorded: active”.

With “TS1: thrombospondin 1, extracellular matrix protein” the “attachment of K562 cells to immobilized protein” value [4] was “much more avidly than to LM”, the “attachment of C32 cells to immobilized protein” value [5] was “much more avidly than to LM” and the “attachment of HT1080 cells to immobilized protein” value [6] was “bound well”. The “attachment of G361 cells to immobilized protein” value [7] was “bound well”.

With “rCBD: recombinant COOH-terminal cell binding domain of TS1 expressed in bacteria as protein A-CBD fusion protein” the “attachment of K562 cells to immobilized protein” value [4] was “bound well”.

In the case of RFYVVMWKQVTQS [4N1], the inhibition of G361 cell attachment to rCBD-coated wells [8] is reported as 30 % inhibition.

FIRVVMYEGKK [7N3] gave an inhibition of G361 cell attachment to rCBD-coated wells [8] of 50 % inhibition.

IRVVM [7N3-1] gave an inhibition of G361 cell attachment to rCBD-coated wells [8] of 25 % inhibition, an inhibition of G361 cell attachment to LM-coated wells [9] of 50 % inhibition and an inhibition of K562 cell attachment to immobilised rCBD [10] of 28 % inhibition.

RFYVVMWK [4N1-1] gave an inhibition of G361 cell attachment to rCBD-coated wells [8] of 30 % inhibition, an inhibition of G361 cell attachment to LM-coated wells [9] of 32 % inhibition and an attachment of G361 cells to peptide adsorbed to microtiter wells (absorbance at 410 nm) (% of the maximum activity of 4N1) [11] of 60. The inhibition of K562 cell attachment to immobilised rCBD [10] was 36 % inhibition.
